The text below walks through data of US8623906B2, “Carboxy isatin hydrazones and their esters as Shp2 inhibitors” (H. Lee Moffitt Cancer Center and Research Institute, Inc., priority 2009, dated 2014).

In experiment [1] the test system is GST-Shp2 PTP domain protein. Format: biochemical. The procedure: All reactions were monitored by thin layer chromatography (TLC) or ^1H NMR. Some products, which could not be purified by simply washing, were purified by Flashmaster chromatography. […] After the purity and structure were confirmed, samples were tested for IC50 by DiFMUP assay, seen in Table 1, appended.
Curve fitting and IC50 were obtained using the GraphPad Prism program (GraphPad Software).

A further experiment deals with Shp2 in MDA-MB-468 cells. In kind it is cell-based. The procedure: (§1) To measure Shp2 PTP activity in immune complexes, cells were lysed in ice-cold PTP lysis buffer [25 mM Hepes, pH 7.4, 150 mM NaCl, 1 mM DTT, 2 mM EDTA, 0.5% Triton X-100, 1:50 diluted protease inhibitor cocktail (Roche, Basel, Switzerland)]. Cell lysate supernatants (0.2 mg/each) were incubated with an anti-Shp2 antibody (Santa Cruz Biotechnology, Santa Cruz, Calif.) or with an anti-Flag antibody M2 (Sigma-Aldrich, St. Louis, Mo.) plus protein G-Sepharose for 2 h at 4° C. Immunoprecipitates were washed twice with the PTP lysis buffer and twice with the Reaction Buffer A (25 mM Hepes, pH 7.4, 50 mM NaCl, 1 mM DTT, 0.05% Triton X-100). Each Shp2 immune complex was resuspended in 100 μl of reaction buffer containing 50 μM DiFMUP and incubated at room temperature for 20 min. After a brief centrifugation, supernatants were transferred into 96-well plates and the DiFMU fluorescence signal was measured. The remaining immune complex pellets were used for immunoblotting analysis of Shp2 protein.

The test system of experiment [2] is Shp2^E76K in TF-1/Shp2^E76K cells. Format: cell-based. The method, then:
as §1

Another experiment concerns pISRE-Luc in HT-29 cells. In words: ISRE luciferase reporter assay. Format: cell-based. To be noted: 50 U/ml IFN-γ alone, 6 h. The method, then: Luciferase reporter assays were conducted using HT-29 cells (5×10^5 cells/each in 12-well plate) were co-transfected with 1.6 μg pISRE-Luc (Clontech, Mountain View, Calif.) and 0.4 μg β-gal plasmids with LipofectAMINE 2000 reagent. Eighteen hours after transfection, cells were incubated in fresh medium, pretreated with indicated concentrations of SPI-112Me or mocked treated for 2 h, and then stimulated with 50 U/ml IFN-γ for 6 h or left unstimulated. Luciferase and β-galactosidase activities were determined as described (Ren, et al., Shp2E76K mutant confers cytokine-independent survival of TF-1 myeloid cells by up-regulating Bcl-XL. J Biol Chem 2007; 282:36463-73). The luciferase activity was then normalized to β-galactosidase-galactosidase activity as an internal control for transfection efficiency.

A further experiment deals with HT-29 cells. In words: Viable cell number (CellTiterGlo), 4 days, Bliss synergism. To be noted: IFN-γ 100 U/ml alone.

Read-outs that look alike come from different tables or passages of the source.

As to `O=C(c1ccc(Cl)c(Cl)c1)N1CCc2cc(S(=O)(=O)N3CCN(c4cccc(Cl)c4)CC3)ccc21` [JF023], the IC50 in experiment [1] is 7.1 µM.
On the same count and under the same terms, under `O=C(O)/C=C/C(=O)N1CCc2cc(S(=O)(=O)N3CCN(c4cccc(Cl)c4)CC3)ccc21` [JHE-01-129A] stands 2.8 µM.
For `O=C(O)CCC(=O)N1CCCc2cc(S(=O)(=O)N3CCN(c4cccc(Cl)c4)CC3)ccc21` [JHE-02-023], the midpoint of inhibition in experiment [1] (Table 1, DiFMUP assay), the IC50, lay at 37.3 ± 5.3 µM.
Molecule `O=C(Nc1cccc(Cl)c1)N1CCc2cc(S(=O)(=O)N3CCN(c4cccc(Cl)c4)CC3)ccc21` [JHE-02-032A] came in with a concentration for half-maximal inhibition (IC50) in experiment [1] of 8.3 µM.
`COc1cccc(NC(=O)N2CCc3cc(S(=O)(=O)N4CCN(c5cccc(Cl)c5)CC4)ccc32)c1` [JHE-02-032B] came in with an IC50 in experiment [1] of 4.8 µM.
Still for that read-out and setting: next, `COc1cccc(C(=O)N2CCc3cc(S(=O)(=O)N4CCN(c5cccc(Cl)c5)CC4)ccc32)c1` [JHE-02-035A]: 7.8 µM.
The molecule `O=C1Nc2ccc(S(=O)(=O)NCc3ccc(F)cc3)cc2/C1=N/Nc1cccc(C(=O)O)c1` [SPI-112, (Z)-3-(2-(5-(N-(4-fluorobenzyl)sulfamoyl)-2-oxoindolin-3-ylidene)hydrazinyl)benzoic acid] had an IC50 in experiment [1] of 2.6 µM. The “effect on EGF-stimulated Shp2 PTP activity” value in the experiment on Shp2 in MDA-MB-468 cells is reported as “did not affect”. Moreover, the “effect on Shp2^E76K PTP activity in treated cells” value in experiment [2] is given as “no decrease”.
`COC(=O)c1cccc(N/N=C2\C(=O)Nc3ccc(S(=O)(=O)NCc4ccc(F)cc4)cc32)c1` [SPI-112Me, (Z)-3-(2-(5-(N-(4-fluorobenzyl)sulfamoyl)-2-oxoindolin-3-ylidene) hydrazinyl)benzoic acid methyl ester] came in with a concentration for half-maximal inhibition (IC50) in experiment [1] of over 100 µM. In the experiment with Shp2 in MDA-MB-468 cells (20 μM pretreatment, EGF 50 ng/ml, 10 min), the “reduction of EGF-stimulated Shp2 PTP activity” value is on record as 77%. Besides, the “effect on Shp2^E76K PTP activity in treated cells” value in experiment [2] (GM-CSF-free medium) was “lower Shp2^E76K PTP activity”.
In experiment [1], `O=C(O)CCC(=O)N1CCc2cc(S(=O)(=O)N3CCN(c4ccc(F)cc4)CC3)ccc21` [XW2-011B] displayed a 50% inhibitory concentration (IC50) of 47.8 µM.
On to `Cc1cccc(N2CCN(S(=O)(=O)c3ccc4c(c3)CCN4C(=O)CCC(=O)O)CC2)c1` [XW2-057], for which it took 3.4 ± 2.3 µM to reach half-maximal inhibition in experiment [1] (Table 1, DiFMUP assay) (IC50).
The same measure, in the same setting: under `O=C(O)CCC(=O)N1CCc2cc(S(=O)(=O)N3CCN(c4ccc(C(=O)O)cc4)CC3)ccc21` [XW3-002] stands 6.1 ± 1.8 µM.

B1: IFN-γ: interferon gamma used to stimulate HT-29 cells, alone or combined with SPI-112Me (protein, UniProt P01579 24-161, looked up)
Interferon gamma: QDPYVKEAENLKKYFNAGHSDVADNGTLFLGILKNWKEESDRKIMQSQIVSFYFKLFKNFKDDQSIQKSVETIKEDMNVKFFNSNKKKRDDFEKLTNYSVTDLNVQRKAIHELIQVMAELSPAAKTGKRKRSQMLFRG
B1: in the experiment with pISRE-Luc in HT-29 cells, the “activation of ISRE luciferase activity” value came out at 26%. Further, in the experiment with HT-29 cells, the fraction of inhibition is recorded as 0.18.
